# Key:
# [1] = system: patient presenting with hyperthyroidism due to multinodular thyroid hyperplasia, and morning allergic rhinitis; experiment: Case No. 2: TSH / free T4 and allergic rhinitis in a patient with hyperthyroidism; type: in vivo, human; details: for course of hyperthyroidism / thyroid hormone level under treatment: a few days of Basdene, 10 days of Neomercazole; for TSH: normal 0.2 to 4; for T4f: normal 10 to 25
# Description: A patient presenting with hyperthyroidism due to multinodular thyroid hyperplasia, and morning allergic rhinitis.
# The normal levels are 0.2 to 4 for TSH and 10 to 25 for T4f. The TSH is abnormally low and the free T4 abnormally high. The patient receives treatment with a synthetic thyroid inhibitor, namely Basdene 9 on its own, starting on February 22, at increasing doses of 1 tbl on the 1st day, 2 tbl on the 2nd day and then 3 tbl per day. on 3 March TSH: 0.02
# On March 7, the patient is seen again by the consultant and, in place of Basdene®, Neo-mercazole® is prescribed at doses of 3 tbl 3 times a day:
# On March, 20 the patient is seen again and the following is added to the Neo-mercazole treatment for the allergic rhinitis:
# Natrium muriaticum 6DH, 3 tbl/1 for 7 days, then
# Natrium muriaticum 4CH, 3 granules/1 for 15 days.
# In order to know whether it is the Natrium muriaticum or the Neomercazole 9 which has normalized the thyroid functions, the Neo-mercazole® is suddenly withdrawn, which, if it is the Neo-mercazole® which has lowered the T4f, should have the effect of raising it immediately to 30, and the regular administration of Natrium muriaticum 4CH is continued on April 13.
# Natrium muriaticum 6DH: 3tbl/day from March 20 to April 11, then Natrium muriaticum 4CH: 3 granules/day from April 11 to April 28. On April 28, the patient is seen again by the consultant and the prescribed dose of Natrium muriaticum is further modified, being increased to Natrium muriaticum 5CH: 3 granules a day. The Neo-mercazole® was of course never restarted. The effect of this change in doses of Natrium muriaticum is to further lower the thyroid hormone:
# The following dose of Natrium Muriaticum 5CH is still continued from this time on: 3 granules a day.
# There was no cancer on the operated part. On August 1 the result of this operation is a T4f of 13.8, which is now near the lower limit of the norm (the norm being 10 to 25). A tendency towards hypothyroidism might be feared.
# [2] = system: child suffering from juvenile chronic polyarthritis; experiment: Case No. 3: clinical course of juvenile chronic polyarthritis; type: in vivo, human; details: 1 tbl of 250 mg a day, before homeopathic treatment; disease worsens
# [3] = on 17 March, after 10 days of Neo-mercazole 3 tbl 3 times a day
Compound,course of hyperthyroidism / thyroid hormone level under treatment [1],"TSH ([1]; on 3 March, Basdene on its own from February 22, up to 3 tbl per day, 0.02 before treatment)","T4f ([1]; on 3 March, Basdene on its own from February 22, up to 3 tbl per day, 35 before treatment)",suppression of polyarticular symptoms [2],"TSH [1, 3]","T4f [1, 3]"
Oc1cc(Cc2ccccc2)nc(S)n1 [Basdene],remained identical and even become slightly worse,0.02,36.8,–,–,–
COc1ccc2cc([C@H](C)C(=O)O)ccc2c1 [Naprosyn],–,–,–,not sufficient to suppress the symptoms,–,–
CCOC(=O)n1ccn(C)c1=S [Neo-mercazole],no improvement,–,–,–,0.02,33.8

# — US20020025314A1, “Homeopathic compositions for the treatment of viral and metabolic deseases” (priority 1992, published 2002)
